Assay results published in patent US20170105967A1, “COMPOSITIONS AND METHODS OF TREATMENT OF INFLAMMATORY SKIN CONDITIONS USING ALLANTOIN” (Scioderm, Inc., priority 2010, published 2017).

Columns and labels:
[1] = percutaneous absorption through dermis only human cadaver skin; type: in vitro ADME; conditions: isolated dermis
Procedure: The formulations A.S. 1-139E, A.S. 1-81B, A.S. 1-135C, A.S. 1-135G, and A.S. 1-81 G were tested on a minimum of triplicate sections from three different cadaver skin donors and three different porcine skin donors for the percutaneous absorption of allantoin over a 48-hour dose period. The intent of this study was to mimic the absorption of allantoin directly into the capillary bed, while the dermis only study attempted to mimic the loss of skin barrier function due to broken skin or blisters. In addition, each formulation was tested in at least triplicate membrane chambers. At preselected times after dosing, the dermal receptor solution was removed in its entirety, replaced with fresh receptor solution, and an aliquot saved for subsequent analysis. The samples were analyzed for the allantoin using high performance liquid chromatography with UV and MS detection (HPLC-UV-MS). The bottom table of FIG. 3 lists a remanufacture of the 9% allantoin cream (A.S. 1-153H) to achieve a better viscosity of the final product.

[2] = test system: psoriatic scales; conditions: in vitro incubation with allantoin solution; cited from earlier work
[3] = in vitro; reactive sulphydryl groups released; cited from earlier work
[4] = test system: calluses and other forms of hyperkeratization; conditions: lower concentrations; cited from earlier work
[5] = sodium lauryl sulfate and beeswax emulsion, pH 6.8 to 7.5; with time and accelerated tests at 40° C.; cited from earlier work

NC(=O)NC1NC(=O)NC1=O (centres unmarked) [allantoin]
penetration of allantoin when the skin's barrier has been damaged or removed [1]: increases significantly | concentration showing keratolytic activity on psoriatic scales [2]: ≥ 0.2% | protein dispersing activity [3]: confirm the protein dispersing activity | concentration loosening the desmosomes (protein bridges) [4]: < 1% | stability of allantoin [5]: degrades significantly
